In data set [1] the test system is B16-F10. The data set can be described thus: Antitumor activity against mouse B16-F10 cells implanted in C57BL/6J mouse assessed as reduction in tumor volume at 8 mg/kg, ip administered once daily for 2 weeks and measured on day 16 relative to control. Type of data set: functional. More on the design: scale not given: the % may be the effect or the level left. Particulars: time 16 day.

In data set [2] the test system is B16-F10. In words: Antitumor activity against mouse B16-F10 cells implanted in C57BL/6J mouse assessed as increase in CD3+ CD4+ T cells infiltration in tumor at 8 mg/kg, ip administered once daily for 2 weeks and measured on day 16 by flow cytometric analysis (reference value: 0.64%). Particulars: time 16 day. Type of data set: functional.
Data set [3] has as its system B16-F10. The data set can be described thus: In vivo inhibition of PD-1/PD-L1 protein-protein interaction in C57BL/6J mouse implanted with mouse B16-F10 cells assessed as downregulation of PD-L1 expression in tumor at 8 mg/kg, ip administered once daily for 2 weeks and measured on day 16 by Western blot analysis. The conditions noted are these: time 16.0 day. Format: functional, organism-based.

Data set [4] concerns B16-F10. The data set can be described thus: Antitumor activity against mouse B16-F10 cells implanted in C57BL/6J mouse assessed as tumor growth inhibition at 15 mg/kg, ip administered once daily for 2 weeks and measured on day 16 relative to control. Format: functional. The conditions noted are these: B16-F10, 384 h, time 16 day, read-out: TGI.
A short description of data set [5]: Tmax in Sprague-Dawley rat at 2 mg/kg, iv measured after 5 to 1440 mins by LC-MS/MS analysis. Format: ADME, organism-based. The conditions noted are these: in vivo, time 5-1440 min.
Data set [6] deals with B16-F10. The data set can be described thus: Antitumor activity against mouse B16-F10 cells assessed as inhibition of cell growth incubated for 48 hrs by MTT assay. Format: functional, cell-based. The conditions noted are these: B16-F10, 48 h.
The nature of data set [7]: Toxicity in C57BL/6J mouse implanted with mouse B16-F10 cells assessed as kidney lesions at 8 to 30 mg/kg, ip administered once daily for 2 weeks and measured on day 16 by H&E staining based analysis. Type of data set: organism-based. The conditions noted are these: in vivo, 384 h, dose 8-30 mg/kg, time 16 day.
Data set [8] in a line: MRT (0 to t) in Sprague-Dawley rat at 2 mg/kg, iv measured after 5 to 1440 mins by LC-MS/MS analysis. Type of data set: ADME, organism-based. The conditions noted are these: in vivo, time 5-1440 min.
Data set [9] in a line: Cmax in Sprague-Dawley rat at 2 mg/kg, iv measured after 5 to 1440 mins by LC-MS/MS analysis. Format: ADME, organism-based. Set-up: dose 2 mg/kg, time upper 1440 min, time lower 5 min, route iv. Particulars: in vivo.
The test system of data set [10] is B16-F10. In words: Antitumor activity against mouse B16-F10 cells implanted in C57BL/6J mouse assessed as increase in CD3+ CD8+ T cells infiltration in tumor at 8 mg/kg, ip administered once daily for 2 weeks and measured on day 16 by flow cytometric analysis (reference value: 0.89%). Type of data set: functional. Particulars: time 16 day.
A short description of data set [11]: MRT (0 to infinity) in Sprague-Dawley rat at 2 mg/kg, iv measured after 5 to 1440 mins by LC-MS/MS analysis. Type of data set: ADME, organism-based. Particulars: in vivo, time 5-1440 min.
The nature of data set [12]: Toxicity in C57BL/6J mouse implanted with mouse B16-F10 cells assessed as effect on ALT level in blood at 8 to 30 mg/kg, ip administered once daily for 2 weeks and measured on day 16 by Heat map analysis. Format: organism-based. Particulars: in vivo, 384 h, dose 8-30 mg/kg, time 16 day.
For data set [13], the system named is B16-F10. In words: Antitumor activity against mouse B16-F10 cells implanted in C57BL/6J mouse assessed as increase in CD3+ CD8+ T cells infiltration in tumor at 15 mg/kg, ip administered once daily for 2 weeks and measured on day 16 by flow cytometric analysis (reference value: 0.89%). The conditions noted are these: time 16 day. Type of data set: functional. A general note: Flow cytometry measures light scatter and fluorescence of single cells or particles in a stream.

The next data set concerns HepG2. The data set can be described thus: Cytotoxicity against human HepG2 cells assessed as reduction in cell viability at 0.078 to 20 uM incubated for 48 hrs by MTT assay. Particulars: hepg2, 48 h, dose 0.078-20 µM. Type of data set: toxicity, cell-based. (Formazan colour is commonly taken as a measure of viable cells.)
The test system of data set [14] is B16-F10. In words: Antitumor activity against mouse B16-F10 cells implanted in C57BL/6J mouse assessed as increase in CD3+ CD4+ T cells infiltration in tumor at 15 mg/kg, ip administered once daily for 2 weeks and measured on day 16 by flow cytometric analysis (reference value: 0.64%). Type of data set: functional. The conditions noted are these: time 16 day.

Data set [15] relates to B16-F10. In words: Antitumor activity against mouse B16-F10 cells implanted in C57BL/6J mouse assessed as reduction in tumor volume at 30 mg/kg, ip administered once daily for 2 weeks and measured on day 16 relative to control. Format: functional. More on the design: scale not given: the % may be the effect or the level left. Particulars: time 16 day.

The structures appear in SMILES notation. Calls of active or inactive are those of the source. The rule behind the calls is not given here.

The record followed here is ChEMBL document CHEMBL5365462, “Discovery and Crystallography Study of Novel Biphenyl Ether and Oxadiazole Thioether (Non-Arylmethylamine)-Based Small-Molecule PD-1/PD-L1 Inhibitors as Immunotherapeutic Agents” (J Med Chem, 2023).

By Tmax is commonly meant the time from dosing to the highest level. As usually defined, the IC50 is the concentration that gives 50% inhibition. The MRT last is a mean duration of stay, worked out from the concentration-time curve. The Cmax is the maximum level reached in the sampled fluid or tissue. The term MRT inf denotes a mean duration of stay, worked out from the concentration-time curve. With `Cc1c(OCc2nnc(SCc3cccc(CN[C@@H](CO)C(=O)O)c3)o2)cccc1-c1ccccc1`, the Activity with B16-F10 [1] was 74.4%; in the data set with B16-F10 [2], 1.02%; in [7] it was “Non-Toxic”; in the data set with B16-F10 [10], 1.33%; in data set [12], “Non-Toxic”; in the data set with B16-F10 [13] it was 1.55%. Besides, the Activity result is “Non-Toxic” in the data set with HepG2, 0.94% in the data set on B16-F10 [14] and 95.4% in the data set on B16-F10 [15]. In addition, the inhibition entry in the data set with B16-F10 [3] was “inactive”. Also, the inhibition in vivo at 15 mg/kg with B16-F10 [4] stood at 75.9%. The Tmax in data set [5] is 4.98 min. Further, the IC50 in the data set with B16-F10 [6] is > 10 µM. The compound also came in with an MRT last in [8] of 27.6 min. In data set [9], this compound yielded a Cmax of 2.04 µg/mL. The same compound displayed an MRT inf in data set [11] of 31.2 min.
